# According to EP0153858A2, “The therapeutic use of prostaglandins” (THE UPJOHN COMPANY, priority 1984, dated 1985):
# How the values were obtained:
# [1] = system: patients suffering from ARDS; experiment: Prospective randomized double blind placebo controlled study of PGE1 infusion in ARDS patients (Example 1); assay type: in vivo, human; conditions: 30 days after discontinuing the infusion; i.v. 5 ng/kg/min increased to 30 ng/kg/min, for 7 days or until extubated; 21 patients
# Procedure: An intravenous solution was prepared by mixing one 5 ml ampoule of Prostin VR Pediatric Sterile Solution containing 2.5 mg PGE1 active drug with one liter of D5W or Normal Saline. Dosages of this solution or of a control solution containing only vehicle but no PGE1 were administered to 41 patients suffering from ARDS in a prospective randomized double blind placebo controlled study. PGE1 or the control solution was started at a dose of 5 ng/kg/min and then increased 5 ng/kg/min every 30 minutes until a rate of 30 ng/kg/min was reached.
# This dosage was continued for 7 days or until the patient was extubated, whichever came sooner. The survival rate 30 days after discontinuing the infusion was as follows: […]
# [2] = system: microvascular permeability; conditions: sheep; cited from earlier work
# patients with ARDS = experiment: Double blind randomized study of PGE1 versus placebo in ARDS patients; survival, and mortality by creatinine/bilirubin level (Example 2); assay type: in vivo, human; conditions: 30 ng/kg/min for 7 days; 17 out of 26 patients survived
# Procedure: Fifty patients with ARDS were randomized to receive PGE1 (30 ng/kg/min for 7 days) or placebo (equivalent volumes of saline and time) in a double blind study. For entry, patients must have required mechanical ventilation with an inspired oxygen concentration of 40% or more and a positive end respiratory pressure of 5 em of water or more. Most of the patients (70%) were septic. 17 out of 26 patients who had received PGE1 survived (65% survival) while only 7 out of 24 patients who had received placebo survived (29% survival).
# The relation between the bilirubin and creatinine levels and the mortality of the patients enrolled in this study is depicted in Table 2. […] Creatinine and bilirubin levels are indicative of kidney and liver function, respectively. The data thus indicate that PGE1 prevents severe kidney and liver damage, and greatly decreases the risk of death, for patients highly susceptible to kidney failure, liver failure, and/or death as a result of trauma, sepsis, shock, and similar catastrophic events.
# [3] = system: endotoxin-induced lung injury; conditions: infusion of the prostaglandin; cited from earlier work
# [4] = system: beagles suffering from hemorrhagic shock; conditions: infusion; cited from earlier work
# [5] = system: patients with severe postoperative ARDS; conditions: cited from earlier work
# trauma = conditions: reported experimentally; cited from earlier work
SMILES,Survival Rate (%) [1] [%],increase of microvascular permeability [2],survival (patients with ARDS) [%],lung and systemic injury associated with endotoxin infusion [3],survival rate [4],lung function of each patient ([5]; 5 patients with severe postoperative ARDS),"patients died of associated problems, including vital organ failure ([5]; of 5 patients with severe postoperative ARDS)",survival rate after trauma (trauma)
"CCCCC[C@H](O)/C=C/[C@H]1[C@H](O)CC(=O)[C@@H]1CCCCCCC(=O)O [PGE1, Prostaglandin E1]",71.4,Reversal,65,decreased,improved,improved,three,–
"CCCCC[C@H](O)/C=C/[C@@H]1[C@H]2C/C(=C/CCCC(=O)O)O[C@H]2C[C@H]1O [PGI2, prostacyclin]",–,–,–,decreased,–,–,–,beneficial in increasing the survival rate
